Laboratory results published in the NIST ThermoML archive (doi:10.1021/acs.jced.7b00106).
Numbers after ± are expanded uncertainties.

Conditions: Liquid, Hot wire method

FC(F)(F)/C=C/Cl [(E)-1-chloro-3,3,3-trifluoroprop-1-ene]
Conditions	thermal conductivity [W/m/K]
203.56 K, 10316 kPa	0.1156 ± 0.0064
203.65 K, 10337 kPa	0.1151 ± 0.018
203.67 K, 219 kPa	0.1135 ± 0.0092
203.67 K, 10365 kPa	0.116 ± 0.0076
203.68 K, 5190 kPa	0.1132 ± 0.0034
203.68 K, 10370 kPa	0.1166 ± 0.012
203.76 K, 231 kPa	0.113 ± 0.0067
203.76 K, 10344 kPa	0.1159 ± 0.0036
203.77 K, 5194 kPa	0.1133 ± 0.005
203.77 K, 10372 kPa	0.1156 ± 0.0045
203.91 K, 10339 kPa	0.1163 ± 0.0042
204.02 K, 228 kPa	0.1135 ± 0.0075
204.02 K, 5185 kPa	0.114 ± 0.0042
204.02 K, 10301 kPa	0.1153 ± 0.0036
204.02 K, 10366 kPa	0.1154 ± 0.0051
204.02 K, 10378 kPa	0.1158 ± 0.0077
204.12 K, 10382 kPa	0.1152 ± 0.0077
204.13 K, 232 kPa	0.1125 ± 0.0058
204.13 K, 5176 kPa	0.1137 ± 0.0045
204.13 K, 10374 kPa	0.1153 ± 0.0078
204.3 K, 10296 kPa	0.1148 ± 0.0038
204.4 K, 223 kPa	0.1124 ± 0.0063
204.4 K, 5171 kPa	0.1142 ± 0.0035
204.4 K, 10360 kPa	0.1158 ± 0.0036
204.41 K, 10375 kPa	0.1154 ± 0.0054
204.43 K, 10300 kPa	0.1153 ± 0.0038
204.53 K, 10368 kPa	0.1152 ± 0.0042
204.54 K, 5176 kPa	0.1138 ± 0.0035
204.54 K, 10353 kPa	0.115 ± 0.0037
204.55 K, 227 kPa	0.1121 ± 0.0038
204.71 K, 10305 kPa	0.115 ± 0.0046
204.81 K, 10351 kPa	0.1146 ± 0.0044
204.81 K, 10361 kPa	0.1153 ± 0.0044
204.82 K, 232 kPa	0.1125 ± 0.0034
204.82 K, 5179 kPa	0.1141 ± 0.0037
204.88 K, 10317 kPa	0.1155 ± 0.004
204.97 K, 10365 kPa	0.1148 ± 0.0039
204.98 K, 5182 kPa	0.1135 ± 0.0037
204.98 K, 10343 kPa	0.1151 ± 0.0037
204.99 K, 223 kPa	0.1121 ± 0.0034
205.17 K, 10310 kPa	0.1155 ± 0.0035
205.25 K, 10392 kPa	0.1152 ± 0.0036
205.26 K, 10349 kPa	0.1152 ± 0.0038
205.27 K, 5170 kPa	0.1139 ± 0.005
205.29 K, 230 kPa	0.1124 ± 0.0041
205.36 K, 10304 kPa	0.1149 ± 0.006
205.44 K, 10383 kPa	0.1147 ± 0.0035
205.45 K, 10380 kPa	0.1147 ± 0.0035
205.46 K, 5164 kPa	0.1134 ± 0.0052
205.48 K, 239 kPa	0.1121 ± 0.0042
222.19 K, 65394 kPa	0.1242 ± 0.0087
222.21 K, 54365 kPa	0.1216 ± 0.0045
222.27 K, 44671 kPa	0.1193 ± 0.0039
222.28 K, 65396 kPa	0.1238 ± 0.0076
222.3 K, 35555 kPa	0.1171 ± 0.0043
222.32 K, 26424 kPa	0.1148 ± 0.0035
222.32 K, 54366 kPa	0.1215 ± 0.0043
222.35 K, 17783 kPa	0.1123 ± 0.005
222.37 K, 44672 kPa	0.1196 ± 0.0043
222.39 K, 449 kPa	0.1078 ± 0.0093
222.39 K, 8723 kPa	0.1103 ± 0.0045
222.4 K, 35559 kPa	0.1171 ± 0.004
222.42 K, 26428 kPa	0.1148 ± 0.0035
222.45 K, 17781 kPa	0.1124 ± 0.0055
222.49 K, 8727 kPa	0.1099 ± 0.0037
222.5 K, 449 kPa	0.1068 ± 0.0034
222.54 K, 65394 kPa	0.1248 ± 0.0052
222.57 K, 54367 kPa	0.1222 ± 0.0042
222.62 K, 44672 kPa	0.1196 ± 0.0041
222.67 K, 35561 kPa	0.1177 ± 0.0058
222.69 K, 54366 kPa	0.1219 ± 0.004
222.7 K, 26430 kPa	0.1145 ± 0.0038
222.73 K, 17781 kPa	0.1124 ± 0.0034
222.75 K, 44676 kPa	0.1192 ± 0.0036
222.77 K, 8729 kPa	0.1105 ± 0.0049
222.79 K, 453 kPa	0.107 ± 0.0047
222.79 K, 26430 kPa	0.1147 ± 0.0035
222.79 K, 35560 kPa	0.1173 ± 0.004
222.86 K, 17785 kPa	0.112 ± 0.0038
222.91 K, 8723 kPa	0.1098 ± 0.0034
222.91 K, 65386 kPa	0.1248 ± 0.0047
222.92 K, 456 kPa	0.1067 ± 0.0032
222.97 K, 54368 kPa	0.122 ± 0.0037
223.03 K, 44680 kPa	0.1196 ± 0.0038
223.06 K, 65383 kPa	0.1239 ± 0.0051
223.07 K, 35560 kPa	0.1178 ± 0.0038
223.11 K, 26433 kPa	0.1152 ± 0.0044
223.11 K, 54368 kPa	0.122 ± 0.0042
223.14 K, 17782 kPa	0.1124 ± 0.0034
223.17 K, 44685 kPa	0.1194 ± 0.0042
223.21 K, 8729 kPa	0.1098 ± 0.0038
223.22 K, 35566 kPa	0.1174 ± 0.0036
223.23 K, 454 kPa	0.1071 ± 0.0036
223.26 K, 26433 kPa	0.1147 ± 0.0035
223.3 K, 17785 kPa	0.112 ± 0.0034
223.34 K, 65385 kPa	0.1243 ± 0.0039
223.36 K, 8728 kPa	0.1097 ± 0.004
223.39 K, 453 kPa	0.1069 ± 0.0033
223.39 K, 54369 kPa	0.1224 ± 0.0037
223.46 K, 44687 kPa	0.1198 ± 0.0036
223.5 K, 65379 kPa	0.1241 ± 0.0038
223.51 K, 35560 kPa	0.1174 ± 0.0036
223.56 K, 26434 kPa	0.1151 ± 0.0035
223.56 K, 54369 kPa	0.1215 ± 0.004
223.6 K, 17788 kPa	0.1125 ± 0.0034
223.63 K, 44686 kPa	0.1196 ± 0.0036
223.67 K, 8730 kPa	0.1101 ± 0.0038
223.68 K, 35563 kPa	0.1172 ± 0.0036
223.71 K, 455 kPa	0.1073 ± 0.0033
223.73 K, 26431 kPa	0.1148 ± 0.0035
223.78 K, 17788 kPa	0.1121 ± 0.0034
223.79 K, 65376 kPa	0.1246 ± 0.0039
223.85 K, 54372 kPa	0.122 ± 0.006
223.86 K, 8734 kPa	0.1093 ± 0.0041
223.89 K, 457 kPa	0.1068 ± 0.0035
223.93 K, 44690 kPa	0.1197 ± 0.0038
223.98 K, 35565 kPa	0.1178 ± 0.0036
223.98 K, 65378 kPa	0.124 ± 0.0038
224.04 K, 26437 kPa	0.1151 ± 0.004
224.05 K, 54371 kPa	0.1216 ± 0.0038
224.1 K, 17783 kPa	0.1124 ± 0.0044
224.13 K, 44694 kPa	0.1195 ± 0.004
224.18 K, 8734 kPa	0.1094 ± 0.0064
224.19 K, 35567 kPa	0.1173 ± 0.0036
224.23 K, 457 kPa	0.107 ± 0.005
224.25 K, 26439 kPa	0.1146 ± 0.0042
224.31 K, 17787 kPa	0.1119 ± 0.0036
224.39 K, 8734 kPa	0.1092 ± 0.0035
224.45 K, 456 kPa	0.1066 ± 0.0038
241.66 K, 13434 kPa	0.1054 ± 0.0039
241.67 K, 7098 kPa	0.1036 ± 0.0045
241.69 K, 586 kPa	0.1011 ± 0.0033
241.75 K, 13448 kPa	0.1051 ± 0.004
241.78 K, 7107 kPa	0.1033 ± 0.0035
241.79 K, 578 kPa	0.1008 ± 0.0031
241.92 K, 53262 kPa	0.1169 ± 0.004
241.93 K, 63858 kPa	0.1199 ± 0.006
241.94 K, 36063 kPa	0.1121 ± 0.0052
241.94 K, 43857 kPa	0.1153 ± 0.0036
241.99 K, 28061 kPa	0.1109 ± 0.011
242.03 K, 20422 kPa	0.1077 ± 0.0037
242.03 K, 53260 kPa	0.1171 ± 0.0056
242.03 K, 63849 kPa	0.1192 ± 0.0043
242.04 K, 43848 kPa	0.114 ± 0.013
